Laboratory results as given in PubChem BioAssay AID1259411 (Chemical Carcinogenesis Research Information System (CCRIS), 2018).
Active and inactive are the calls of the source. No rule for the calls is given here.

System: rodent carcinogenicity bioassays, tumor incidence
Assay: CCRIS carcinogenicity studies
In short: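 NCI-built, expert-reviewed records of carcinogenicity and related test outcomes (mutagenicity, tumor promotion/inhibition) compiled from published and report sources, historical span 1985-2011, not updated.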

Structure (SMILES): CC(C)(c1ccc(O)cc1)c1ccc(O)cc1
- carcinogen call (Species: MOUSE, Strain/Sex: B6C3F1/FEMALE, Route: ORAL, Dose: 0, 5000, 10000 PPM IN DIET FOR 103 WK (STUDY DURATION: 103 WK), Dose: 0, 5000, 10000 PPM IN DIET FOR 103 WK (STUDY DURATION: 103 WK)): inactive; negative
- carcinogen call (Species: MOUSE, Strain/Sex: B6C3F1/MALE, Route: ORAL, Dose: 0, 1000, 5000 PPM IN DIET FOR 103 WK (STUDY DURATION: 103 WK), Dose: 0, 1000, 5000 PPM IN DIET FOR 103 WK (STUDY DURATION: 103 WK), Tumor Site: Type of Lesion: HEMATOPOIETIC SYSTEM: LYMPHOMA OR LEUKEMIA): equivocal
- carcinogen call (Species: Mouse, Strain/Sex: CD-1/Female (24/group); Route: Subcutaneous; Dose: 0; 10; 100; 1000 ug/kg in corn oil, once a day from days 1-5 of life; study duration 18 mo); Dose: 0; 10; 100; 1000 ug/kg in corn oil, once a day from days 1-5 of life; study duration 18 mo), Tumor Site: Type of Lesion: Uterus, leiomyoma (0/18; 1/23; 2/20; 1/16 [multiple lesions]), Tumor Site: Type of Lesion: Uterus, leiomyoma (0/18; 1/23; 2/20; 1/16 [multiple lesions])): inactive; negative (nonneoplastic and preneoplastic lesions observed in ovary/oviduct and
- carcinogen call (Species: RAT, Strain/Sex: F344/FEMALE, Route: ORAL, Dose: 0, 1000, 2000 PPM IN DIET FOR 103 WK (STUDY DURATION: 103 WK), Dose: 0, 1000, 2000 PPM IN DIET FOR 103 WK (STUDY DURATION: 103 WK), Tumor Site: Type of Lesion: HEMATOPOIETIC SYSTEM: LEUKEMIA): equivocal
- carcinogen call (Species: RAT, Strain/Sex: F344/MALE, Route: ORAL, Dose: 0, 1000, 2000 PPM IN DIET FOR 103 WK (STUDY DURATION: 103 WK), Dose: 0, 1000, 2000 PPM IN DIET FOR 103 WK (STUDY DURATION: 103 WK), Tumor Site: Type of Lesion: HEMATOPOIETIC SYSTEM: LEUKEMIA): equivocal
- carcinogen call (Species: Rat, Strain/Sex: Wistar-Furth/Female (?/group with maximum of 8 pups per dam), Route: Osmotic pump to dams, Dose: 0, 2.5, 25, 250, 1000 ug/kg bw/day from embryonic day 9 to postnatal day 1, study duration 50 or 95 postnatal days, Dose: 0, 2.5, 25, 250, 1000 ug/kg bw/day from embryonic day 9 to postnatal day 1, study duration 50 or 95 postnatal days, Tumor Site: Type of Lesion: Mammary gland, ductal hyperplasia): active; positive (significant increase at all dose levels at pnd 50; significant at 2.5

Structure (SMILES): Nc1nc(N)c2nc(-c3ccccc3)c(N)nc2n1
- carcinogen call (Species: MOUSE, Strain/Sex: B6C3F1/FEMALE, Route: ORAL, Dose: 0, 100, 200, 400 PPM IN FEED FOR 104 WK (STUDY DURATION: 2 YR), Dose: 0, 100, 200, 400 PPM IN FEED FOR 104 WK (STUDY DURATION: 2 YR), Tumor Site: Type of Lesion: LIVER: HEPATOCELLULAR ADENOMA): active; positive
- carcinogen call (Species: MOUSE, Strain/Sex: B6C3F1/FEMALE, Route: ORAL, Dose: 0, 400 PPM IN FEED FOR 104 WK (STUDY DURATION: 2 YR), Tumor Site: Type of Lesion: LIVER: HEPATOCELLULAR ADENOMA): active; positive
- carcinogen call (Species: MOUSE, Strain/Sex: B6C3F1/MALE, Route: ORAL, Dose: 0, 100, 200, 400 PPM IN FEED FOR 104 WK (STUDY DURATION: 2 YR), Dose: 0, 100, 200, 400 PPM IN FEED FOR 104 WK (STUDY DURATION: 2 YR), Tumor Site: Type of Lesion: LIVER: HEPATOCELLULAR CARCINOMA): active; positive
- carcinogen call (Species: MOUSE, Strain/Sex: B6C3F1/MALE, Route: ORAL, Dose: 0, 400 PPM IN FEED FOR 104 WK (STUDY DURATION: 2 YR), Tumor Site: Type of Lesion: LIVER: HEPATOCELLULAR ADENOMA): active; positive
- carcinogen call (Species: RAT, Strain/Sex: F344/FEMALE, Route: ORAL, Dose: 0, 150, 300, 600 PPM IN FEED FOR 104 WK (STUDY DURATION: 2 YR), Dose: 0, 150, 300, 600 PPM IN FEED FOR 104 WK (STUDY DURATION: 2 YR)): inactive; negative
- carcinogen call (Species: RAT, Strain/Sex: F344/MALE, Route: ORAL, Dose: 0, 150, 300, 600 PPM IN FEED FOR 104 WK (STUDY DURATION: 105 WK), Dose: 0, 150, 300, 600 PPM IN FEED FOR 104 WK (STUDY DURATION: 105 WK), Tumor Site: Type of Lesion: LIVER: ADENOMA): equivocal

Structure (SMILES): CCOc1ccc(N(O)C(C)=O)cc1
- carcinogen call (Species: RAT, Strain/Sex: ALBINO/MALE, Route: ORAL, Dose: 0.05, 0.1, 0.5% IN DIET, Dose: 0.05, 0.1, 0.5% IN DIET, Tumor Site: Type of Lesion: LIVER: HEPATOCELLULAR CARCINOMA): active; positive

Structure (SMILES): COc1ccccc1O
- carcinogen call (Species: RAT, Strain/Sex: SPRAGUE-DAWLEY/FEMALE, Route: GAVAGE, Dose: 0, 20, 50, 200 MG/KG/D IN 0.5% CARBOXYMETHYLCELLULOSE SUSPENSION FOR 103 WK (STUDY DURATION: 103 WK), Dose: 0, 20, 50, 200 MG/KG/D IN 0.5% CARBOXYMETHYLCELLULOSE SUSPENSION FOR 103 WK (STUDY DURATION: 103 WK)): inactive; negative
- carcinogen call (Species: RAT, Strain/Sex: SPRAGUE-DAWLEY/MALE, Route: GAVAGE, Dose: 0, 20, 50, 200 MG/KG/D IN 0.5% CARBOXYMETHYLCELLULOSE SUSPENSION FOR 103 WK (STUDY DURATION: 103 WK), Dose: 0, 20, 50, 200 MG/KG/D IN 0.5% CARBOXYMETHYLCELLULOSE SUSPENSION FOR 103 WK (STUDY DURATION: 103 WK)): inactive; negative

Structure (SMILES): CC1(C)S[C@@H]2[C@H](NC(=O)COc3ccccc3)C(=O)N2[C@H]1C(=O)O
- carcinogen call (Species: MOUSE, Strain/Sex: B6C3F1/FEMALE, Route: GAVAGE, Dose: 0, 500, 1000 MG/KG IN CORN OIL 5 D/WK FOR 103-104 WK (STUDY DURATION: 106 WK), Dose: 0, 500, 1000 MG/KG IN CORN OIL 5 D/WK FOR 103-104 WK (STUDY DURATION: 106 WK)): inactive; negative
- carcinogen call (Species: MOUSE, Strain/Sex: B6C3F1/FEMALE, Route: GAVAGE, Dose: 0, 500, 1000 MG/KG IN CORN OIL 5D/WK FOR 104 WK, Dose: 0, 500, 1000 MG/KG IN CORN OIL 5D/WK FOR 104 WK): inactive; negative
- carcinogen call (Species: MOUSE, Strain/Sex: B6C3F1/MALE, Route: GAVAGE, Dose: 0, 500, 1000 MG/KG IN CORN OIL 5 D/WK FOR 103-104 WK (STUDY DURATION: 106 WK), Dose: 0, 500, 1000 MG/KG IN CORN OIL 5 D/WK FOR 103-104 WK (STUDY DURATION: 106 WK)): inactive; negative
- carcinogen call (Species: MOUSE, Strain/Sex: B6C3F1/MALE, Route: GAVAGE, Dose: 0, 500, 1000 MG/KG IN CORN OIL 5D/WK FOR 104 WK, Dose: 0, 500, 1000 MG/KG IN CORN OIL 5D/WK FOR 104 WK): inactive; negative
- carcinogen call (Species: RAT, Strain/Sex: F344/FEMALE, Route: GAVAGE, Dose: 0, 500, 1000 MG/KG IN CORN OIL 5 D/WK FOR 103-104 WK (STUDY DURATION: 106 WK), Dose: 0, 500, 1000 MG/KG IN CORN OIL 5 D/WK FOR 103-104 WK (STUDY DURATION: 106 WK)): inactive; negative
- carcinogen call (Species: RAT, Strain/Sex: F344/FEMALE, Route: GAVAGE, Dose: 0, 500, 1000 MG/KG IN CORN OIL 5D/WK FOR 103 WK (STUDY DURATION: 104 WK), Dose: 0, 500, 1000 MG/KG IN CORN OIL 5D/WK FOR 103 WK (STUDY DURATION: 104 WK)): inactive; negative
- carcinogen call (Species: RAT, Strain/Sex: F344/MALE, Route: GAVAGE, Dose: 0, 500, 1000 MG/KG IN CORN OIL 5 D/WK FOR 103-104 WK (STUDY DURATION: 106 WK), Dose: 0, 500, 1000 MG/KG IN CORN OIL 5 D/WK FOR 103-104 WK (STUDY DURATION: 106 WK)): inactive; negative
- carcinogen call (Species: RAT, Strain/Sex: F344/MALE, Route: GAVAGE, Dose: 0, 500, 1000 MG/KG IN CORN OIL 5D/WK FOR 103 WK (STUDY DURATION: 104 WK), Dose: 0, 500, 1000 MG/KG IN CORN OIL 5D/WK FOR 103 WK (STUDY DURATION: 104 WK)): inactive; negative

Structure (SMILES): C[C@H]1CCCC(=O)CCC/C=C/c2cc(O)cc(O)c2C(=O)O1
- carcinogen call (Species: MOUSE, Strain/Sex: B6C3F1/FEMALE, Route: ORAL, Dose: 0, 50, 100 PPM IN DIET, Dose: 0, 50, 100 PPM IN DIET, Tumor Site: Type of Lesion: LIVER: HEPATOCELLULAR ADENOMA, CARCINOMA, PITUITARY GLAND: ADENOMA, CARCINOMA): active; positive
- carcinogen call (Species: MOUSE, Strain/Sex: B6C3F1/MALE, Route: ORAL, Dose: 0, 50, 100 PPM IN DIET, Dose: 0, 50, 100 PPM IN DIET, Tumor Site: Type of Lesion: PITUITARY GLAND: ADENOMA, CARCINOMA): active; positive
- carcinogen call (Species: RAT, Strain/Sex: F344/FEMALE, Route: ORAL, Dose: 0, 25, 50 PPM IN DIET, Dose: 0, 25, 50 PPM IN DIET): inactive; negative
- carcinogen call (Species: RAT, Strain/Sex: F344/MALE, Route: ORAL, Dose: 0, 25, 50 PPM IN DIET, Dose: 0, 25, 50 PPM IN DIET): inactive; negative
